According to US20140315889A1, “HYDROXAMATE DERIVATIVES FOR HDAC INHIBITOR, AND THE PHARMACEUTICAL COMPOSITION COMPRISING THEREOF” (CHONG KUN DANG PHARMACEUTICAL CORP., priority 2011, published 2014):
Read-outs that look alike come from different tables or passages of the source.

Experiments:
Format in all cases: biochemical
human recombinant HDAC6 = target: T1, human recombinant HDAC6 (Homo sapiens, UniProt Q9UBN7); test: HDAC enzyme activity test, HDAC6; details: for Selectivity for HDAC6, HD1/HD6: ratio HDAC1 IC50 / HDAC6 IC50
T1 construct: purchased Calibiochem Co. (so in the source) 382180
T1 sequence (Q9UBN7 1-1215): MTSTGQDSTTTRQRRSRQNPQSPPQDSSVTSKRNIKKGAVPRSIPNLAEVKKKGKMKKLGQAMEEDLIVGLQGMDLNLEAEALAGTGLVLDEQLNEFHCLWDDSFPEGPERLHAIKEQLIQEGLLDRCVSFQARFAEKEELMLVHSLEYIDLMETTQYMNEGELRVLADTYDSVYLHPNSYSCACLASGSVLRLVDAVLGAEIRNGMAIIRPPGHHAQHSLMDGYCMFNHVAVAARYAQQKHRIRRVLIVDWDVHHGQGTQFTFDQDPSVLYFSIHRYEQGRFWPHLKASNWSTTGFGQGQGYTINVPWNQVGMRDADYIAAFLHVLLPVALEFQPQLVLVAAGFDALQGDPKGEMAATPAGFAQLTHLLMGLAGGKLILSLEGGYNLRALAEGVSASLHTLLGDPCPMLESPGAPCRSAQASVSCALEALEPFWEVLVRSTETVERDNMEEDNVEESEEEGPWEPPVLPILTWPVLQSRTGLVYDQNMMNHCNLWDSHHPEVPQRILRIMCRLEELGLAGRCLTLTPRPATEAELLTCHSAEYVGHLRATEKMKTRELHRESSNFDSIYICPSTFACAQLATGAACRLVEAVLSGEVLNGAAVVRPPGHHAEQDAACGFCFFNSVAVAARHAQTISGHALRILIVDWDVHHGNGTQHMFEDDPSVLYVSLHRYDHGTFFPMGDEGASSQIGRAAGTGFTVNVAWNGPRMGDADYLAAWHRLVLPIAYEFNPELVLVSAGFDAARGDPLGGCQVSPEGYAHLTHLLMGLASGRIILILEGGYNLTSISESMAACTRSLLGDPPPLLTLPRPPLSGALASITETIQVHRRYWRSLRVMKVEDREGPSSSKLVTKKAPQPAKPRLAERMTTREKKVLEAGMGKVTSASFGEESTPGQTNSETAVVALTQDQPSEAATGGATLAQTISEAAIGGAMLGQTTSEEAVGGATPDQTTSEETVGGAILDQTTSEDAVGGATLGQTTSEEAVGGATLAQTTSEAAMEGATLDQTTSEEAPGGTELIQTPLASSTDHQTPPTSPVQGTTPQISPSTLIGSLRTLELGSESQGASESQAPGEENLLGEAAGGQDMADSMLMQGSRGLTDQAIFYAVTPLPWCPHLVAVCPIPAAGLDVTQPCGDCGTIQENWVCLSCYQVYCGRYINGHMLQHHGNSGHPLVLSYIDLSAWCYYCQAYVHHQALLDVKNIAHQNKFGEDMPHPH
Protocol: (§1) Then, 0.3 μg of enzyme and 10 μM of substrate per well were added, reacted at 30° C. for 60 minutes. Thereto, Fluor de Lys® Developer II (BML-KI176) was added and reacted for 30 minutes. […] From the data, the respective IC50 were calculated by GraphPad Prism 4.0 program.

HDAC4 = HDAC4 (Homo sapiens, UniProt P56524); test: HDAC enzyme activity test, HDAC4; details: Table 11, eleven HDAC isozymes; read-out: Inhibition ability (IC50) against HDAC4
HDAC4, sequence (P56524 whole entry, species assumed): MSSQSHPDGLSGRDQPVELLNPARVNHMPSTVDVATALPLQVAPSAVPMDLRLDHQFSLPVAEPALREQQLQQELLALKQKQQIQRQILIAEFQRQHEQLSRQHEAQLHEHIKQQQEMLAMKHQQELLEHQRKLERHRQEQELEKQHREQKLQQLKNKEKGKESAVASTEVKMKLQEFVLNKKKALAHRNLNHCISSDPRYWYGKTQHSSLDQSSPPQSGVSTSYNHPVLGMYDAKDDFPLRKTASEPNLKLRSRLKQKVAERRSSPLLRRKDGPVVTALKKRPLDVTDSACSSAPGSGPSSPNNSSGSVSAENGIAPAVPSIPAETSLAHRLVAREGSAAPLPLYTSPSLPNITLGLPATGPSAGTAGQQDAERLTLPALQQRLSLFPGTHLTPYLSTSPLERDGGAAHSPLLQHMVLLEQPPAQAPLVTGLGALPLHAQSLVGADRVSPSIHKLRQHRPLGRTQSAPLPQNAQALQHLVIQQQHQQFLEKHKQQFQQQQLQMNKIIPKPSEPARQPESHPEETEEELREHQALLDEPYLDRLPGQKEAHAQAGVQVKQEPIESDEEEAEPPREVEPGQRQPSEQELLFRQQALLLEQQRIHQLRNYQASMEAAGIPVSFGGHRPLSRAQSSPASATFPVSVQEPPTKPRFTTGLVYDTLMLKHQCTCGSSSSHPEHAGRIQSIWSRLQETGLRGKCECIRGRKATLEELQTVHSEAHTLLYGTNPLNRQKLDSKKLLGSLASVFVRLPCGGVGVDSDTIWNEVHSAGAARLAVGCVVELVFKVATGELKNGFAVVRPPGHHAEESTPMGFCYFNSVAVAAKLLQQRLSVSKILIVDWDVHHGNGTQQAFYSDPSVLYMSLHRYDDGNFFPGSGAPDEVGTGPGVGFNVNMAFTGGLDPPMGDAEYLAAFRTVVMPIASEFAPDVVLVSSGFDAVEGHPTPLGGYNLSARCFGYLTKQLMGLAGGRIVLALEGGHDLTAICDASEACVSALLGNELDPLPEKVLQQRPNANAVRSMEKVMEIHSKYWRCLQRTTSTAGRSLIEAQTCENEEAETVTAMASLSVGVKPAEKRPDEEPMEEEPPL
Protocol: as §1

HDAC10 = target: T2, HDAC10 (Homo sapiens, UniProt Q969S8); test: HDAC enzyme activity test, HDAC10; details: Table 11, eleven HDAC isozymes; read-out: Inhibition ability (IC50) against HDAC10
T2 sequence (Q969S8 1-669): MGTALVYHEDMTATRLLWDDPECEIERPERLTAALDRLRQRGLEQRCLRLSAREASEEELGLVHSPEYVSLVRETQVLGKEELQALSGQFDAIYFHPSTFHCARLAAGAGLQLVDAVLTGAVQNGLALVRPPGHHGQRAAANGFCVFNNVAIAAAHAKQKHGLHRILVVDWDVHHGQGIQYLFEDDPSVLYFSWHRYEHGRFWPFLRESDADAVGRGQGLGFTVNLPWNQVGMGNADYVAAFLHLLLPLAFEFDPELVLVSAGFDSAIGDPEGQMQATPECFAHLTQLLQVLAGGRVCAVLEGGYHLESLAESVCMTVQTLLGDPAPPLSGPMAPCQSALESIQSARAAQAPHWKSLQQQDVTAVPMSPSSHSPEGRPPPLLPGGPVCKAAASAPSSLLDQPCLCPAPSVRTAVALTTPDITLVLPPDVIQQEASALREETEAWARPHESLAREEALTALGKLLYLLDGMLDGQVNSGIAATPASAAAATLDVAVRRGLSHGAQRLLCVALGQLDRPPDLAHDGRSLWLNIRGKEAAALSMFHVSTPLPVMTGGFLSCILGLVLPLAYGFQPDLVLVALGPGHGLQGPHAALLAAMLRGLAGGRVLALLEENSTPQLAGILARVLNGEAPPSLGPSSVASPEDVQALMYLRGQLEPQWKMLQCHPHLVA
Protocol: as §1

HDAC8 = target: T3, HDAC8 (Homo sapiens, UniProt Q9BY41); test: HDAC enzyme activity test, HDAC8; details: Table 11, eleven HDAC isozymes; read-out: Inhibition ability (IC50) against HDAC8
T3 sequence (Q9BY41 1-377): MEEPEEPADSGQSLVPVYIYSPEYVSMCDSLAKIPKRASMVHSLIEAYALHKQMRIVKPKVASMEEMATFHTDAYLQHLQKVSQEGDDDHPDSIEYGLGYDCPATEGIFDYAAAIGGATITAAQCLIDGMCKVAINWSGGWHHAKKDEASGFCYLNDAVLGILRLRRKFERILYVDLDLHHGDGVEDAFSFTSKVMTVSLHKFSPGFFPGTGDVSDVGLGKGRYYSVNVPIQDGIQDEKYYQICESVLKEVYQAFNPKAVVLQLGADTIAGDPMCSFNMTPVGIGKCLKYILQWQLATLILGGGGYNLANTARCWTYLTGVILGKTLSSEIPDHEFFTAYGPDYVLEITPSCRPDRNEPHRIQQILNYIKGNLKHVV
Protocol: as §1

[1] = Table 11, eleven HDAC isozymes, read-out: Inhibition ability (IC50) against HDAC6
[2] = Table 12, read-out: Inhibition ability (IC50) HDAC6

| SMILES | IC50 (human recombinant HDAC6; [1]) | IC50 (HDAC4) | IC50 (HDAC10) | IC50 (HDAC8) | Selectivity for HDAC6, HD1/HD6 (human recombinant HDAC6; Table 12) | IC50 (human recombinant HDAC6; [2]) | IC50 (human recombinant HDAC6; data of Table 11, read-out: IC50 against HDAC6) | selectivity for HDAC6 over HDAC1 (human recombinant HDAC6; from the data of Table 11) | selectivity for HDAC6 over HDAC1 (human recombinant HDAC6; from the data of Table 12) |
| --- | --- | --- | --- | --- | --- | --- | --- | --- | --- |
| CN1CCN(C(=O)N(CCCCCCC(=O)NO)c2ccc(-c3ccc4cnn(C)c4c3)cc2)CC1 [CKD-581, reference compound] | 2.39 nM | 1680 nM | 2.66 nM | 86.1 nM | – | – | – | – | – |
| O=C(NO)c1ccc(Cn2c3c(c4ccccc42)C(=O)C(CN2CCOCC2)CC3)cc1 (stereo not shown) [Compound 87, N-hydroxy-4-((3-(morpholinomethyl)-4-oxo-1,2,3,4-tetrahydrocarbazol-9-yl)methyl)benzamide] | 13.1 nM | 934 nM | 15300 nM | 1280 nM | 411.8 | 7.45 nM | 13 nM | more than 800 times | – |
| CN1CCN(CC2CCc3c(c4cc(F)ccc4n3Cc3ccc(C(=O)NO)cc3)C2=O)CC1 (stereo not shown) [Compound 142, 4-((6-fluoro-3-((4-methylpiperazin-1-yl)methyl)-4-oxo-1,2,3,4-tetrahydrocarbazol-9-yl)methyl)-N-hydroxybenzamide] | 3.55 nM | 2210 nM | 37000 nM | 1060 nM | 568.3 | 4.7 nM | – | – | – |
| CC1(C)CC(=O)c2c(C(F)(F)F)nn(Cc3ccc(C(=O)NO)cc3)c2C1 [Compound 237, 4-((6,6-dimethyl-4-oxo-3-(trifluoromethyl)-4,5,6,7-tetrahydro-1H-indazol-1-yl)methyl)-N-hydroxybenzamide] | 32.2 nM | 4990 nM | 76100 nM | 3930 nM | 219.3 | 17.8 nM | – | – | more than 219 times |
| O=C(NO)c1ccc(Cn2c3c(c4ccccc42)C(=O)N(CCN2CCOCC2)CC3)cc1 [Compound 249, N-hydroxy-4-((2-(2-morpholinoethyl)-1-oxo-1,2,3,4-tetrahydropyrido[4,3-b]indol-5-yl)methyl)benzamide] | 5.09 nM | 255 nM | 53000 nM | 220 nM | 162.2 | 21.3 nM | – | – | – |
